Data set [1] in a line: Antioxidant activity assessed as DPPH free radical scavenging activity at 75 ug/ml after 20 mins by UV-vis spectrophotometry analysis. In kind it is physicochemical. Background: Loss of DPPH colour is used to gauge radical scavenging.
Data set [2] in a line: Antioxidant activity assessed as DPPH free radical scavenging activity at 100 ug/ml after 20 mins by UV-vis spectrophotometry analysis. It counts as physicochemical.
Data set [3] in a line: Antioxidant activity assessed as hydroxyl radical scavenging activity at 75 ug/ml after 60 mins. In kind it is physicochemical. The following applies: 1 h.
The nature of data set [4]: Antioxidant activity assessed as hydroxyl radical scavenging activity at 100 ug/ml after 60 mins. It counts as physicochemical. The following applies: 1 h.
In the next data set the test system is Staphylococcus aureus. Nature of the data set: Antibacterial activity against Staphylococcus aureus assessed as growth inhibition incubated for 24 hrs at 37 degC by broth dilution method. In kind it is functional.
The next data set concerns Escherichia coli. Description: Antibacterial activity against Escherichia coli assessed as growth inhibition incubated for 24 hrs at 37 degC by broth dilution method. It counts as functional.
For another data set, the system named is Pseudomonas aeruginosa. Description: Antibacterial activity against Pseudomonas aeruginosa assessed as growth inhibition incubated for 24 hrs at 37 degC by broth dilution method. It counts as functional.
The test system of the next data set is Aspergillus niger. Nature of the data set: Antifungal activity against Aspergillus niger assessed as growth inhibition incubated for 72 hrs at 37 degC by broth dilution method. It counts as functional. (Dilution methods test growth across graded concentrations, often in twofold steps.)
For another data set, the system named is Aspergillus flavus. Nature of the data set: Antifungal activity against Aspergillus flavus assessed as growth inhibition incubated for 72 hrs at 37 degC by broth dilution method. It counts as functional.
The next data set deals with Candida albicans. Description: Antifungal activity against Candida albicans assessed as growth inhibition incubated for 72 hrs at 37 degC by broth dilution method. It counts as functional.
A short description of data set [5]: Antioxidant activity assessed as DPPH free radical scavenging activity at 25 ug/ml after 20 mins by UV-vis spectrophotometry analysis. It counts as physicochemical.
Data set [6] in a line: Antioxidant activity assessed as DPPH free radical scavenging activity at 50 ug/ml after 20 mins by UV-vis spectrophotometry analysis. In kind it is physicochemical.

For orientation: MIC90 means an inhibitory concentration at the 90% level, which refers to growth in some studies and to a panel of isolates in others.

Each structure is given as a SMILES string. Values after ≈ are worked out from the molar mass of the structure shown.

For `COc1ccc(-n2cc(C=O)c(-c3cc4c(C)cc(=O)oc4c(-c4nn(-c5ccc(OC)cc5)cc4C=O)c3O)n2)cc1`, the “inhibition (INH)” value in [1] came to 21.14%; in [2], 24.59%; in data set [3], 29.4%; in [4], 35.13%; in data set [5] it was 14.2%; in data set [6], 17.87%. Moreover, the MIC90 with Staphylococcus aureus turned out to be 50 µg/mL (≈ 86.7 µM); with Escherichia coli, 50 µg/mL (≈ 86.7 µM); in the data set on Pseudomonas aeruginosa, 12.5 µg/mL (≈ 21.7 µM); in the data set with Aspergillus niger it was 25 µg/mL (≈ 43.4 µM); in the data set with Aspergillus flavus it was 50 µg/mL (≈ 86.7 µM); with Candida albicans it was 50 µg/mL (≈ 86.7 µM).
In the case of `Cc1cccc(-n2cc(C=O)c(-c3cc4c(C)cc(=O)oc4c(-c4nn(-c5cccc(C)c5)cc4C=O)c3O)n2)c1`, the “inhibition (INH)” value in data set [1] is 18.78%; in data set [2] it was 24.02%; in data set [3], 26.49%; in [4], 30.1%; in data set [5], 13.24%; in data set [6] it was 16.4%. In addition, the MIC90 is 75 µg/mL (≈ 138 µM) in the data set on Staphylococcus aureus; 50 µg/mL (≈ 91.8 µM) in the data set with Escherichia coli; 25 µg/mL (≈ 45.9 µM) in the data set on Pseudomonas aeruginosa; 75 µg/mL (≈ 138 µM) in the data set with Aspergillus niger; 75 µg/mL (≈ 138 µM) in the data set with Aspergillus flavus; 50 µg/mL (≈ 91.8 µM) in the data set with Candida albicans.
For the compound `Cc1cc(=O)oc2c(-c3nn(-c4ccccc4)cc3C=O)c(O)c(-c3nn(-c4ccccc4)cc3C=O)cc12`, the “inhibition (INH)” value in [1] came to 20.08%; in data set [2] it was 23.6%; in data set [3], 25.9%; in data set [4] it was 30.04%; in data set [5], 15.1%; in data set [6] it was 17.34%. Besides, the MIC90 in the data set with Staphylococcus aureus was determined as 50 µg/mL (≈ 96.8 µM); with Escherichia coli, 50 µg/mL (≈ 96.8 µM); in the data set with Pseudomonas aeruginosa it was 50 µg/mL (≈ 96.8 µM); in the data set with Aspergillus niger, 50 µg/mL (≈ 96.8 µM); with Aspergillus flavus, 75 µg/mL (≈ 145 µM); in the data set with Candida albicans, 50 µg/mL (≈ 96.8 µM).
As to `COc1ccc(N/N=C(\C)c2cc3c(C)cc(=O)oc3c(/C(C)=N/Nc3ccc(OC)cc3)c2O)cc1`, the “inhibition (INH)” value in [1] is listed as 19.7%; in data set [2], 22.4%; in [3], 26.36%; in data set [4] it was 33.01%; in data set [5], 14.57%; in data set [6] it was 17.17%. In addition, the MIC90 came out at 25 µg/mL (≈ 49.9 µM) in the data set on Staphylococcus aureus; 12.5 µg/mL (≈ 25 µM) in the data set on Escherichia coli; 12.5 µg/mL (≈ 25 µM) in the data set with Pseudomonas aeruginosa; 12.5 µg/mL (≈ 25 µM) in the data set on Aspergillus niger; 25 µg/mL (≈ 49.9 µM) with Aspergillus flavus; 50 µg/mL (≈ 99.9 µM) in the data set on Candida albicans.
`C/C(=N\Nc1ccc(F)cc1)c1cc2c(C)cc(=O)oc2c(/C(C)=N/Nc2ccc(F)cc2)c1O`: the “inhibition (INH)” value in [1] was 14.01%; in data set [2], 17.45%; in data set [3], 17.33%; in [4], 26.6%; in [5], 8.49%; in data set [6], 11.69%. Further, the MIC90 was 75 µg/mL (≈ 157 µM) in the data set with Staphylococcus aureus; 50 µg/mL (≈ 105 µM) in the data set on Escherichia coli; 50 µg/mL (≈ 105 µM) with Pseudomonas aeruginosa; 50 µg/mL (≈ 105 µM) with Aspergillus niger; 75 µg/mL (≈ 157 µM) in the data set with Aspergillus flavus; 75 µg/mL (≈ 157 µM) in the data set on Candida albicans.
Consider `C/C(=N\Nc1cccc(C)c1)c1cc2c(C)cc(=O)oc2c(/C(C)=N/Nc2cccc(C)c2)c1O`, for which the “inhibition (INH)” value is given as 13.97% in data set [1]; 17.29% in [2]; 24.22% in data set [3]; 30.78% in data set [4]; 10.92% in [5]; 11.8% in [6]. For the same compound, the MIC90 in the data set on Staphylococcus aureus came to 50 µg/mL (≈ 107 µM); in the data set on Escherichia coli, 50 µg/mL (≈ 107 µM); in the data set on Pseudomonas aeruginosa, 25 µg/mL (≈ 53.4 µM); in the data set on Aspergillus niger, 75 µg/mL (≈ 160 µM); in the data set with Aspergillus flavus it was 50 µg/mL (≈ 107 µM); in the data set with Candida albicans, 50 µg/mL (≈ 107 µM).
On to `C/C(=N\Nc1ccc(Cl)cc1)c1cc2c(C)cc(=O)oc2c(/C(C)=N/Nc2ccc(Cl)cc2)c1O`, for which the “inhibition (INH)” value in data set [1] amounted to 17.41%; in data set [2], 20.62%; in data set [3], 23.49%; in [4], 30.75%; in data set [5], 10.73%; in data set [6], 14.75%. Also, the MIC90 in the data set on Staphylococcus aureus is 50 µg/mL (≈ 98.2 µM); with Escherichia coli it was 50 µg/mL (≈ 98.2 µM); with Pseudomonas aeruginosa, 25 µg/mL (≈ 49.1 µM); in the data set with Aspergillus niger, 25 µg/mL (≈ 49.1 µM); in the data set with Aspergillus flavus, 50 µg/mL (≈ 98.2 µM); with Candida albicans, 50 µg/mL (≈ 98.2 µM).
As to `Cc1ccc(-n2cc(C=O)c(-c3cc4c(C)cc(=O)oc4c(-c4nn(-c5ccc(C)cc5)cc4C=O)c3O)n2)cc1`, the “inhibition (INH)” value stood at 20.75% in data set [1]; 24.56% in data set [2]; 27.07% in data set [3]; 31.48% in data set [4]; 16% in data set [5]; 17.28% in data set [6]. The MIC90 with Staphylococcus aureus came out at 75 µg/mL (≈ 138 µM); with Escherichia coli, 50 µg/mL (≈ 91.8 µM); with Pseudomonas aeruginosa, 25 µg/mL (≈ 45.9 µM); in the data set with Aspergillus niger, 50 µg/mL (≈ 91.8 µM); in the data set on Aspergillus flavus it was 75 µg/mL (≈ 138 µM); in the data set with Candida albicans it was 50 µg/mL (≈ 91.8 µM).
`Cc1cc(=O)oc2c(-c3nn(-c4ccc(Cl)cc4)cc3C=O)c(O)c(-c3nn(-c4ccc(Cl)cc4)cc3C=O)cc12`: the “inhibition (INH)” value is 20.63% in [1]; 23.61% in data set [2]; 24.77% in data set [3]; 32.07% in data set [4]; 15.58% in data set [5]; 17.55% in data set [6]. Besides, the MIC90 in the data set on Staphylococcus aureus was 50 µg/mL (≈ 85.4 µM); in the data set on Escherichia coli it was 25 µg/mL (≈ 42.7 µM); in the data set with Pseudomonas aeruginosa, 25 µg/mL (≈ 42.7 µM); with Aspergillus niger, 50 µg/mL (≈ 85.4 µM); in the data set with Aspergillus flavus it was 50 µg/mL (≈ 85.4 µM); in the data set on Candida albicans, 100 µg/mL (≈ 171 µM).
In the case of `C/C(=N\Nc1ccccc1)c1cc2c(C)cc(=O)oc2c(/C(C)=N/Nc2ccccc2)c1O`, the “inhibition (INH)” value in data set [1] was determined as 19.35%; in data set [2], 22.22%; in data set [3] it was 24.36%; in data set [4], 29.65%; in data set [5] it was 15.03%; in [6] it was 16.96%. Also, the MIC90 in the data set with Staphylococcus aureus turned out to be 50 µg/mL (≈ 114 µM); in the data set with Escherichia coli, 25 µg/mL (≈ 56.8 µM); in the data set on Pseudomonas aeruginosa, 25 µg/mL (≈ 56.8 µM); with Aspergillus niger it was 50 µg/mL (≈ 114 µM); in the data set on Aspergillus flavus it was 50 µg/mL (≈ 114 µM); with Candida albicans, 50 µg/mL (≈ 114 µM).
Regarding `Cc1cc(=O)oc2c(-c3nn(-c4ccc(F)cc4)cc3C=O)c(O)c(-c3nn(-c4ccc(F)cc4)cc3C=O)cc12`, the “inhibition (INH)” value stood at 17.69% in data set [1]; 19.44% in [2]; 21.27% in data set [3]; 29.47% in data set [4]; 11.62% in [5]; 14.93% in data set [6]. Besides, the MIC90 in the data set on Staphylococcus aureus was 75 µg/mL (≈ 136 µM); in the data set with Escherichia coli it was 75 µg/mL (≈ 136 µM); with Pseudomonas aeruginosa, 50 µg/mL (≈ 90.5 µM); in the data set on Aspergillus niger, 75 µg/mL (≈ 136 µM); with Aspergillus flavus, 75 µg/mL (≈ 136 µM); with Candida albicans, 100 µg/mL (≈ 181 µM).
For `C/C(=N\Nc1ccc(C)cc1)c1cc2c(C)cc(=O)oc2c(/C(C)=N/Nc2ccc(C)cc2)c1O`, the “inhibition (INH)” value in data set [1] is reported as 19.43%; in data set [2], 22.45%; in data set [3] it was 25.54%; in data set [4] it was 30.52%; in [5] it was 14.29%; in data set [6], 16.65%. For the same compound, the MIC90 with Staphylococcus aureus was determined as 25 µg/mL (≈ 53.4 µM); in the data set with Escherichia coli, 25 µg/mL (≈ 53.4 µM); in the data set on Pseudomonas aeruginosa, 25 µg/mL (≈ 53.4 µM); with Aspergillus niger, 50 µg/mL (≈ 107 µM); in the data set with Aspergillus flavus, 25 µg/mL (≈ 53.4 µM); in the data set on Candida albicans, 50 µg/mL (≈ 107 µM).
As for `O=C1O[C@H]([C@@H](O)CO)C(O)=C1O` [ASCORBIC ACID], the “inhibition (INH)” value is on record as 21.98% in data set [1], 24.25% in data set [2], 15.08% in data set [5] and 16.87% in [6].
Turning to `COc1ccc(O)c(C(C)(C)C)c1.COc1ccc(O)cc1C(C)(C)C` [BUTYLATED HYDROXYANISOLE], the figures for the “inhibition (INH)” value in [3] and in data set [4] were 25.58% and 32.03%, respectively.
Take `O=C(O)c1cn(C2CC2)c2cc(N3CCNCC3)c(F)cc2c1=O` [CIPROFLOXACIN]: the values for the MIC90 in the data set on Staphylococcus aureus, in the data set on Escherichia coli and in the data set with Pseudomonas aeruginosa were 25 µg/mL (≈ 75.4 µM), 25 µg/mL (≈ 75.4 µM) and 12.5 µg/mL (≈ 37.7 µM), respectively.
Regarding `OC(Cn1cncn1)(Cn1cncn1)c1ccc(F)cc1F` [FLUCONAZOLE], the MIC90 in the data set on Aspergillus niger was 25 µg/mL (≈ 81.6 µM); in the data set with Aspergillus flavus it was 25 µg/mL (≈ 81.6 µM); in the data set on Candida albicans, 50 µg/mL (≈ 163 µM).

For the origin of these results see ChEMBL document CHEMBL3745592, “Synthesis of novel coumarin appended bis(formylpyrazole) derivatives: Studies on their antimicrobial and antioxidant activities” (Bioorg Med Chem Lett, 2016).
